Measured values reported in PubChem BioAssay AID434933 (The Scripps Research Institute Molecular Screening Center, 2010).
“And” between values parts separate entries of the source, which are not always exact repeats. Equal values may be shown once. The source made the active and inactive calls.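 Rule for the calls: active = compound with HepG2 cell viability IC50 of 10 micromolar or lower; inactive = IC50 above 10 micromolar.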

system: HepG2 viability, CellTiter-Glo ATP luminescence; assay: HepG2 viability loss – cell-based, luminescence, dose response, cytotoxicity control for TPT1 inhibitor project, late-stage follow-up (AID 434933)

| SMILES | IC50 |
| --- | --- |
| O=c1oc2c(O)c(O)cc3c(=O)oc4c(O)c(O)cc1c4c23 | > 79.4 µM (inactive) |
| Cc1cc(C)n(Cc2ccc(C(=O)NN=Cc3ccc(-c4ccc([N+](=O)[O-])cc4)o3)o2)n1 | 72.7 µM (inactive) |
| Cc1ccc(N2C(=O)NC(=O)/C(=C\c3ccc([N+](=O)[O-])o3)C2=O)cc1 | 53.5 µM (inactive) |
| CC1=C(C#N)C(=O)N(C2CCS(=O)(=O)C2)C(=O)/C1=C\c1ccco1 (stereo not given) | > 79.4 µM (inactive) |
| NS(=O)(=O)c1cc(C(=O)NC2CCSc3ccccc32)ccc1Cl (stereo not given) | > 79.4 µM (inactive) |
| Cc1[nH]n(-c2ccc(S(=O)(=O)O)cc2)c(=O)c1N[N-]c1ccc(C2=CC(=O)/C(=N\[N-]c3ccc4c(S(=O)(=O)O)cc(S(=O)(=O)O)c(N)c4c3O)C=C2)cc1O.[Cu+].[Cu+] | 53.6 µM (inactive) |
| Cc1ccccc1N1C(=O)/C(=C/c2ccco2)C(=O)NC1=S | > 79.4 µM (inactive) and 36.6 µM (inactive) |
| COc1ccc(OC)c(N2C(=O)/C(=C/c3ccco3)C(=O)NC2=S)c1 | > 79.4 µM (inactive) |
| OC(Cn1cncn1)(Cn1cncn1)c1ccc(F)cc1F | > 79.4 µM (inactive) |
| NC(=O)c1cc[n+](CC2=C(C(=O)O)N3C(=O)[C@@H](NC(=O)C(c4ccccc4)S(=O)(=O)O)[C@H]3SC2)cc1 (stereo not given in full) | > 79.4 µM (inactive) |
